# Experimental data reported in patent US11559497B2 (Guangzhou Dazhou Biomedicine Ltd., priority 2020, dated 2023).
# What was measured:
# [1] = Phase 1 clinical study: plasma pharmacokinetics after ketamine transdermal patch; settings: for plasma concentration: 28 mg dose; for AUC: AUCall; for AUC(0-inf): AUCinf
# Method: Enrollment was planned to achieve participation of up to 14 adult subjects with MDD in the 3 stages of the protocol. Subjects were to be screened within 4 weeks of enrollment. Eligible subjects who provided written consent were to be enrolled into Stage 1 of the study. In Stage 1 of the study, subjects were to receive the low-dose transdermal patch. The amount of residual drug was to be measured and PK analysis conducted for each subject to inform the subsequent dosing. In Stage 2, after a 2 to 4 week washout period, a placebo patch was to be administered. A “deception” protocol was used in order to ensure the subjects remained blinded to the treatment. Placebo administration was followed by a 1 week washout period, after which subjects were to receive the high-dose transdermal patch in Stage 3. The overall study duration from screening until the end of Stage 3 was approximately 60 days, including both inpatient and outpatient portions of the study. The general study design is illustrated in FIG. 3.
# The patch was predicted to deliver systemically approximately 20 mg.
# For Stage 1, blood samples were collected pre-patch application, and at 2, 6, 12, 24, 28, 32, 48, 96, and 168 hours post-patch application.
# Blood samples were collected in tubes containing sodium heparin and stored on ice or room temperature until centrifuged under refrigeration or room temperature for at least 10 minutes at 3,000 revolutions per minute. After centrifugation, plasma was removed, divided into 2 aliquots of approximately 0.6 mL each, frozen, and stored at or below −20° C. Blood was processed to plasma and frozen within 1 hour of collection. Processed frozen plasma samples were transferred on dry ice to the analytical laboratory and were stored at or below −20° C. until bioanalysis was performed.
# A non-compartmental analysis (NCA) was used to calculate PK parameters using Phoenix® WinNonlin® 6.4 or later (Certara, USA).
# [2] = Reported human pharmacokinetics of ketamine by IV infusion, oral or intranasal route; settings: 40-min IV infusion of 35 mg of ketamine
# Description: There has been very limited data on monitoring HNK pharmacokinetics in humans in a robust approach. […] Also HNK was shown preclinically to have lower potential of AEs.
# [3] = Prediction of delivered dose and human PK from in vitro permeability and PK linearity; settings: predicted
# NMDA receptor = settings: in vitro; Shimoyama et al., 1999; cited from earlier work
structure (smiles),measurement,setting,value
"NC1(c2ccccc2Cl)CCCC(O)C1=O (stereo not drawn) [Hydroxynorketamine, hydroxynorketamine]",plasma concentration,[1]; 48 hours post application of tested ketamine patch,about 10 ng/ml
same,plasma concentration,[1]; 72 hours post application of tested ketamine patch,about 6 ng/ml
same,AUCall,"[1]; Stage 1 (60 cm^2 patch, 24 h, low-dose), Mean",438 ng·h/mL
same,AUCall,"[1]; Stage 1 (60 cm^2 patch, 24 h, low-dose), Median",364 ng·h/mL
same,AUCinf,"[1]; Stage 1, Mean",666 ng·h/mL
same,Cmax,"[1]; Stage 1, Mean",12.3 ng/mL
same,Extrap,"[1]; Stage 1, Mean",10%
same,T1/2,"[1]; Stage 1, Mean",19.3 h
same,Tmax,"[1]; Stage 1, Mean",33.0 h
same,AUCinf,"[1]; Stage 1, Median",573 ng·h/mL
same,Cmax,"[1]; Stage 1, Median",12.6 ng/mL
same,Extrap,"[1]; Stage 1, Median",6%
same,T1/2,"[1]; Stage 1, Median",17.9 h
same,Tmax,"[1]; Stage 1, Median",32.0 h
same,AUCall,"[1]; Stage 3 (20 and 60 cm^2 patches, high-dose), Mean",549 ng·h/mL
same,AUCall,"[1]; Stage 3 (20 and 60 cm^2 patches, high-dose), Median",488 ng·h/mL
same,AUCinf,"[1]; Stage 3, Mean",839 ng·h/mL
same,Cmax,"[1]; Stage 3, Mean",15.7 ng/mL
same,Extrap,"[1]; Stage 3, Mean",15%
same,T1/2,"[1]; Stage 3, Mean",20.2 h
same,Tmax,"[1]; Stage 3, Mean",33.5 h
same,AUCinf,"[1]; Stage 3, Median",660 ng·h/mL
same,Cmax,"[1]; Stage 3, Median",12.8 ng/mL
same,Extrap,"[1]; Stage 3, Median",10%
same,T1/2,"[1]; Stage 3, Median",19.5 h
same,Tmax,"[1]; Stage 3, Median",29.9 h
same,ratio of AUC of HNK/Ketamine,[1]; tested ketamine patch,2.23
same,ratio of Cmax of HNK/ketamine,[1]; tested ketamine patch,1.19
same,ratio of AUC of HNK/Ketamine,"[2]; MDD patients, digitized from Zarate et al.",0.522
same,ratio of Cmax of HNK/ketamine,[2]; digitized from Zarate et al.,about 0.113
same,Cmax resulting from about 100 mg dose by ketamine transdermal delivery device,[3],around 30 ng/mL
"NC1(c2ccccc2Cl)CCCCC1=O (stereo not drawn) [Norketamine, norketamine]",Extrap,"[1]; Stage 1, Mean",12%
same,Extrap,"[1]; Stage 1, Median",11%
same,Extrap,"[1]; Stage 3, Mean",7%
same,Extrap,"[1]; Stage 3, Median",7%
same,AUC,"[1]; human, plasma, other: transdermal patch, 20 mg, Stage 1 (60 cm^2 patch, 24 h, low-dose), Mean",377 ng·h/mL
same,AUC,"[1]; human, plasma, other: transdermal patch, 20 mg, Stage 1 (60 cm^2 patch, 24 h, low-dose), Median",328 ng·h/mL
same,AUC(0-inf),"[1]; human, plasma, other: transdermal patch, 20 mg, Stage 1, Mean",420 ng·h/mL
same,AUC(0-inf),"[1]; human, plasma, other: transdermal patch, 20 mg, Stage 1, Median",367 ng·h/mL
same,Cmax,"[1]; human, plasma, other: transdermal patch, 20 mg, Cmax, Stage 1, Mean",11.1 ng/mL
same,Cmax,"[1]; human, plasma, other: transdermal patch, 20 mg, Cmax, Stage 1, Median",9.85 ng/mL
same,half-life,"[1]; human, plasma, other: transdermal patch, 20 mg, T1/2, Stage 1, Mean",19.4 h
same,half-life,"[1]; human, plasma, other: transdermal patch, 20 mg, T1/2, Stage 1, Median",21 h
same,Tmax,"[1]; human, plasma, other: transdermal patch, 20 mg, Tmax, Stage 1, Mean",28.4 h
same,Tmax,"[1]; human, plasma, other: transdermal patch, 20 mg, Tmax, Stage 1, Median",28 h
same,AUC,"[1]; human, plasma, other: transdermal patch, 40 mg, Stage 3 (20 and 60 cm^2 patches, high-dose), Mean",486 ng·h/mL
same,AUC,"[1]; human, plasma, other: transdermal patch, 40 mg, Stage 3 (20 and 60 cm^2 patches, high-dose), Median",387 ng·h/mL
same,AUC(0-inf),"[1]; human, plasma, other: transdermal patch, 40 mg, Stage 3, Mean",624 ng·h/mL
same,AUC(0-inf),"[1]; human, plasma, other: transdermal patch, 40 mg, Stage 3, Median",500 ng·h/mL
same,Cmax,"[1]; human, plasma, other: transdermal patch, 40 mg, Cmax, Stage 3, Mean",13.4 ng/mL
same,Cmax,"[1]; human, plasma, other: transdermal patch, 40 mg, Cmax, Stage 3, Median",10.3 ng/mL
same,half-life,"[1]; human, plasma, other: transdermal patch, 40 mg, T1/2, Stage 3, Mean",17.9 h
same,half-life,"[1]; human, plasma, other: transdermal patch, 40 mg, T1/2, Stage 3, Median",19.2 h
same,Tmax,"[1]; human, plasma, other: transdermal patch, 40 mg, Tmax, Stage 3, Mean",31.1 h
same,Tmax,"[1]; human, plasma, other: transdermal patch, 40 mg, Tmax, Stage 3, Median",28 h
same,ratio of AUC of NK/Ketamine,[1]; tested ketamine patch,1.40
same,ratio of Cmax of NK/ketamine,[1]; tested ketamine patch,1.08
same,ratio of AUC of NK/Ketamine,[2]; digitized literature data,0.989
same,ratio of Cmax of NK/ketamine,[2]; digitized literature data,about 0.362
CN[C@]1(c2ccccc2Cl)CCCCC1=O [S-ketamine],greater affinity than R-ketamine for NMDA receptor binding,NMDA receptor,~4 fold
